Data from ChEMBL document CHEMBL4811278, “Discovery of novel modulators for the PPARα (peroxisome proliferator activated receptor α): Potential therapies for nonalcoholic fatty liver disease” (Bioorg Med Chem, 2021).
The source made the active and inactive calls. The calls are words filed in the database; no cut-off is given here.

Key:
[1] = target: T1, Peroxisome proliferator-activated receptor alpha (Mus musculus) (UniProt P23204); experiment: In vivo agonist activity at PPARalpha in high fat diet-induced nonalcoholic steatohepatitis C57BL/6J mouse model assessed as increase in ACOX1 mRNA expression in liver administered at 3 mg/kg, po and measured after 24 hrs by quantitative real time PCR analysis; assay type: functional, organism-based
T1 sequence (whole entry): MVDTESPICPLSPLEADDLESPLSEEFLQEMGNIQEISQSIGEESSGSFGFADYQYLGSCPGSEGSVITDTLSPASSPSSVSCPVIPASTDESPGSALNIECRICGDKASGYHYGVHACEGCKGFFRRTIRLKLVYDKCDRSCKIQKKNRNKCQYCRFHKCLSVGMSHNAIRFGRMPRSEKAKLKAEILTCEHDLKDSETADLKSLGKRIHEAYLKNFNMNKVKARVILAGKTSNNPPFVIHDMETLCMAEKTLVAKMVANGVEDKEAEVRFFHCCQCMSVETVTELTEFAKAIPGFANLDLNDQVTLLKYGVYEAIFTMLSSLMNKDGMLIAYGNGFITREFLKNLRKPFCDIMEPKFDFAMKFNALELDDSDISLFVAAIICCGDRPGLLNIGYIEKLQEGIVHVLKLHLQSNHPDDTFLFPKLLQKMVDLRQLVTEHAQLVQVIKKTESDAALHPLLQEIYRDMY

[2] = target: T2, Peroxisome proliferator-activated receptor delta (Homo sapiens, UniProt Q03181); experiment: Agonist activity at Gal4-fused human PPARdelta expressed in monkey CV1 cells assessed as receptor transactivation incubated for 45 hrs by luciferase reporter gene assay; assay type: cell-based, CV-1
T2 sequence (Q03181 whole entry): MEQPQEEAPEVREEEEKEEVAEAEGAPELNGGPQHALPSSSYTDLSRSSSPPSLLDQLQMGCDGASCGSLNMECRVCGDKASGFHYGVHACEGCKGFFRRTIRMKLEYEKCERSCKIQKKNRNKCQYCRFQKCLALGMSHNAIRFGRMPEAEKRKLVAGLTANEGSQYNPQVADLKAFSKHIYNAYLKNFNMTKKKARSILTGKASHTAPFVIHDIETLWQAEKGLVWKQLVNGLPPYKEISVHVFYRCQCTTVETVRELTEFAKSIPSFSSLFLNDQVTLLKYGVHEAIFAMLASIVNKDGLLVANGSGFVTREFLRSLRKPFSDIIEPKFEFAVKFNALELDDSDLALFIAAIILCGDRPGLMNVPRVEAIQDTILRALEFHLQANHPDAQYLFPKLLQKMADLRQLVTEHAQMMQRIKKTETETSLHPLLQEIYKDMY

[3] = system: Mus musculus; experiment: Upregulation of PPARalpha expression in liver of high fat diet-induced nonalcoholic steatohepatitis C57BL/6J mouse model at 3 mg/kg, po and measured after 24 hrs by quantitative real time PCR analysis; assay type: functional, organism-based
[4] = system: Mus musculus; experiment: Hypolipidemic activity in high fat diet-induced nonalcoholic steatohepatitis C57BL/6J mouse model assessed as reduction in plasma triglyceride level at 3 mg/kg, po administered via gavage and measured after 24 hrs; assay type: functional
[5] = target: T3, Peroxisome proliferator-activated receptor alpha (Homo sapiens, UniProt Q07869); experiment: Agonist activity at Gal4-fused human PPARalpha co-expressed with RXRalpha in monkey CV1 cells assessed as PPRE transcriptional activation incubated for 45 hrs by luciferase reporter gene assay; assay type: cell-based, CV-1
T3 sequence (Q07869 whole entry): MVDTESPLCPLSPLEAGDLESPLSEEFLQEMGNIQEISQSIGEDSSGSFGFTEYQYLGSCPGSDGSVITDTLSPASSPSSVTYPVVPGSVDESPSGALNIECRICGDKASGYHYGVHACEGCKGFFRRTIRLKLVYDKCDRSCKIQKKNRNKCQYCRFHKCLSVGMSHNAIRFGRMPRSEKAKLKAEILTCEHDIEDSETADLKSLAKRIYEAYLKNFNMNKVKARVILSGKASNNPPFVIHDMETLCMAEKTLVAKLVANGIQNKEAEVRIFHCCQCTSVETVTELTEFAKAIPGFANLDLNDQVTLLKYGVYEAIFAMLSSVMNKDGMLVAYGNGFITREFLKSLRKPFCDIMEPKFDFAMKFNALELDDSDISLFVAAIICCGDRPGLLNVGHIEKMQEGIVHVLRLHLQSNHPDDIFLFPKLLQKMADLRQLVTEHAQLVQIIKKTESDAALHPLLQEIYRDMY

[6] = target: T4, Peroxisome proliferator-activated receptor gamma (Homo sapiens, UniProt P37231); experiment: Agonist activity at Gal4-fused human PPARgamma expressed in monkey CV1 cells assessed as receptor transactivation incubated for 45 hrs by luciferase reporter gene assay; assay type: cell-based, CV-1
T4 sequence (P37231 whole entry): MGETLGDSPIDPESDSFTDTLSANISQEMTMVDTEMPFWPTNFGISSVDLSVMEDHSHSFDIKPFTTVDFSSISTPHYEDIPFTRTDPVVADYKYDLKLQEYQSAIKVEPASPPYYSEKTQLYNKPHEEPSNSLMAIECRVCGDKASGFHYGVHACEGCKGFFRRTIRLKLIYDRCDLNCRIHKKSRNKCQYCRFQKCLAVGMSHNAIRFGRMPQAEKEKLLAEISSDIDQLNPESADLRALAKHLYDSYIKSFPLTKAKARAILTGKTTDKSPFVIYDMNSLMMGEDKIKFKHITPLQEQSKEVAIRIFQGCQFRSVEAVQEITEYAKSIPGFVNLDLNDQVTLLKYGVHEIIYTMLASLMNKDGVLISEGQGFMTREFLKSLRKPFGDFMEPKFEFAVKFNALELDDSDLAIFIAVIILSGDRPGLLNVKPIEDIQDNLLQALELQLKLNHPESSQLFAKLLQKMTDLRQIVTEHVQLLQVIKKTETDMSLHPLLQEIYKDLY

[7] = target: T1, Peroxisome proliferator-activated receptor alpha (Mus musculus); experiment: In vivo agonist activity at PPARalpha in high fat diet-induced nonalcoholic steatohepatitis C57BL/6J mouse model assessed as increase in Cyp4a3 mRNA expression in liver administered at 3 mg/kg, po and measured after 24 hrs by quantitative real time PCR analysis; assay type: functional, organism-based
[8] = target: T1, Peroxisome proliferator-activated receptor alpha (Mus musculus); experiment: In vivo agonist activity at PPARalpha in high fat diet-induced nonalcoholic steatohepatitis C57BL/6J mouse model assessed as increase in LPL mRNA expression in liver administered at 3 mg/kg, po and measured after 24 hrs by quantitative real time PCR analysis; assay type: functional, organism-based
[9] = target: T1, Peroxisome proliferator-activated receptor alpha (Mus musculus); experiment: In vivo agonist activity at PPARalpha in high fat diet-induced nonalcoholic steatohepatitis C57BL/6J mouse model assessed as trans-repression of ApoC3 mRNA expression in liver administered at 3 mg/kg, po and measured after 24 hrs by quantitative real time PCR analysis; assay type: functional, organism-based
[10] = target: T5, Peroxisome proliferator-activated receptor alpha (Mus musculus, UniProt P23204); experiment: Agonist activity at Gal4-fused mouse PPARalpha co-expressed with RXRalpha in monkey CV1 cells assessed as PPRE transcriptional activation incubated for 45 hrs by luciferase reporter gene assay; assay type: cell-based, CV-1
T5 sequence (P23204 whole entry): T1 sequence (whole entry)

[11] = target: T1, Peroxisome proliferator-activated receptor alpha (Mus musculus); experiment: In vivo agonist activity at PPARalpha in high fat diet-induced nonalcoholic steatohepatitis C57BL/6J mouse model assessed as increase in mCPT1A gene expression in liver at 3 mg/kg, po administered once daily for 7 days and measured at >3 days by quantitative real time PCR analysis; assay type: functional, organism-based; details: time day >3
[12] = target: T1, Peroxisome proliferator-activated receptor alpha (Mus musculus); experiment: In vivo agonist activity at PPARalpha in high fat diet-induced nonalcoholic steatohepatitis C57BL/6J mouse model assessed as increase in Cyp4a3 mRNA expression in liver administered at 3 mg/kg, po administered once daily for 7 days by quantitative real time PCR analysis; assay type: functional, organism-based; details: time 7.0 day
[13] = target: T1, Peroxisome proliferator-activated receptor alpha (Mus musculus); experiment: In vivo agonist activity at PPARalpha in high fat diet-induced nonalcoholic steatohepatitis C57BL/6J mouse model assessed as increase in LPL mRNA expression in liver administered at 3 mg/kg, po administered once daily for 7 days by quantitative real time PCR analysis; assay type: functional, organism-based; details: time 7.0 day
[14] = Toxicity in high fat diet-induced nonalcoholic steatohepatitis C57BL/6J mouse model assessed as increase in plasma glucose level at 3 mg/kg, po administered once daily for 7 days and measured after 4 days; assay type: organism-based; details: in vivo, 96 h, time 4 day
[15] = target: T1, Peroxisome proliferator-activated receptor alpha (Mus musculus); experiment: In vivo agonist activity at PPARalpha in high fat diet-induced nonalcoholic steatohepatitis C57BL/6J mouse model assessed as increase in mACADM gene expression in liver at 3 mg/kg, po administered once daily for 7 days by quantitative real time PCR analysis; assay type: functional, organism-based; details: time 7.0 day

| SMILES | Activity [1] | EC50 [2] | EC50 [5] | EC50 [6] | Activity [7] | Activity [8] | Activity [9] | EC50 [10] | Activity [11] | Activity [12] | Activity [13] | Activity [15] | Activity [3] | inhibition in vivo at 3 mg/kg [4] | Activity [14] |
| --- | --- | --- | --- | --- | --- | --- | --- | --- | --- | --- | --- | --- | --- | --- | --- |
| Cc1ccc(Cn2nc(CCCc3ccc(OC(C)(C)C(=O)O)cc3)n(Cc3ccc(F)cc3)c2=O)cc1 | Active | > 10 µM | 0.00095 µM | > 10 µM | Active | Active | Active |  |  |  |  |  | Active | ≥ 50% |  |
| COc1cccc(Cn2c(CCCc3ccc(OC(C)(C)C(=O)O)cc3)nn(Cc3ccc(C)cc3)c2=O)c1 | Active | > 10 µM | 0.001 µM | > 10 µM | Active | Active | Active |  |  |  |  |  | Active | ≥ 50% |  |
| Cc1ccc(Cn2nc(CCCc3ccc(OC(C)(C)C(=O)O)cc3)n(Cc3ccc(C)cc3)c2=O)cc1 | inactive | > 10 µM | 0.00085 µM | > 10 µM | inactive | Active | inactive |  |  |  |  |  | Active | ≥ 50% |  |
| CC(C)(Sc1ccc(CCN(CCCCC2CCCCC2)C(=O)NC2CCCCC2)cc1)C(=O)O [GW7647] | inactive |  |  |  | inactive |  |  |  | Active | Active | inactive | Active |  | ≥ 50% | Toxic |
| C=Cc1ccc(Cn2nc(CCCc3ccc(OC(C)(C)C(=O)O)cc3)n(Cc3ccc(C)cc3)c2=O)cc1 | Active | > 10 µM | 0.012 µM | > 10 µM | Active | Active | Active | 0.02 µM |  |  |  |  | Active | ≥ 50% |  |

Second part, led by results:

| Activity [1] | EC50 [2] | EC50 [5] | EC50 [6] | Activity [7] | Activity [8] | Activity [9] | EC50 [10] | Activity [11] | Activity [12] | Activity [13] | Activity [15] | SMILES | Activity [3] | inhibition in vivo at 3 mg/kg [4] | Activity [14] |
| --- | --- | --- | --- | --- | --- | --- | --- | --- | --- | --- | --- | --- | --- | --- | --- |
| Active | > 10 µM | 0.001 µM | > 10 µM | Active | Active | Active | 0.01 µM |  |  |  |  | Cc1ccc(Cn2nc(CCCc3ccc(OC(C)(C)C(=O)O)cc3)n(Cc3ccc(Cl)cc3)c2=O)cc1 | Active | ≥ 50% |  |
| Active | > 10 µM |  | > 10 µM | Active | Active | Active |  |  |  |  |  | Cc1ccc(Cn2nc(CCCc3ccc(OC(C)(C)C(=O)O)cc3)n(Cc3ccccc3)c2=O)cc1 | Active | ≥ 50% |  |
| Active |  |  |  | Active |  | Active |  |  |  |  |  | COc1ccc(Cn2c(CCCc3ccc(OC(C)(C)C(=O)O)cc3)nn(Cc3ccc(C(C)(C)C)cc3)c2=O)cc1 | Active | ≥ 50% |  |
| Active | > 10 µM |  | > 10 µM | Active | Active | Active |  |  |  |  |  | COc1cc(Cn2c(CCCc3ccc(OC(C)(C)C(=O)O)cc3)nn(Cc3ccc(C)cc3)c2=O)cc(OC)c1OC | Active | ≥ 50% |  |
